Experiments:
[1] = test system: subcutaneous melanoma (B16F10 cells); assay: Growth of subcutaneous melanoma in B16F10 tumor-bearing mice; assay type: in vivo; conditions: B16F10 tumor-bearing C57BL/6 mice, vein injection twice at 4-day interval; BMS-202 0.1 mg/mouse, Cr^3+ 100 μg/mL 100 μL, 12 days
Excerpt: A batch of SPF C57BL/6 mice (6 weeks old) were purchased from a company. B16F10 cells were selected as subcutaneous tumor model cells. 5×10^5 B16F10 cells were inoculated on a right side of a dorsal flank of each mouse and cultured for 13 days. When tumor volumes reached 100-200 mm^3, the modeling was successful. The obtained tumor-bearing mice can be used for a subsequent in vivo experiment. Animal experiments all comply with requirements for animal protection ethics and welfare.
The successfully constructed B16 tumor-bearing mice were divided into four groups: a CrCl3 experimental group (amount of chromium ions: 100 μg/mL, 100 μL), a BMS experimental group (0.1 mg/mouse), a CrCl3+BMS experimental group (100 μg/mL, 100 μL CrCl3+0.1 mg BMS/mouse) and a control group (normal saline, 100 μL) (n=3 for each group). On the first day, CrCl3, BMS and CrCl3+BMS were injected into veins of mice in different groups, respectively. […] Tumor growth was monitored every two days by a digital caliper with a tumor volume calculation formula of ½×L×W^2. On the 12th day of treatment, the mice were euthanatized.

macrophages (RAW264.7) = assay: Transwell detection of the promotion of macrophage migration by metal ions; assay type: cell-based, mouse; conditions: for ability to promote the migration of macrophages: liver cancer cells in lower chamber, metal ions 0, 500, 1000, 2000 μM, RAW264.7 in upper chamber
Excerpt: This example provides the establishment and validation of a platform for screening metal ions that promotes the migration of immune cells. A specific method is described below. • 1. Preparation of metal ions: metal compounds such as zinc chloride, potassium chloride, magnesium chloride, manganese chloride, anhydrous calcium chloride, aluminium sulfate (octadecahydrate), anhydrous copper(II) chloride, anhydrous iron(III) chloride, iron(II) chloride, chromium(III) chloride hexahydrate and anhydrous cobalt(II) chloride were prepared into solutions ranging from 0 μM to 2000 μM using normal saline, respectively. • 2. Preparation of BM-DCs (bone marrow-derived dendritic cells), RAW264.7 (mouse monocytic leukemia macrophage cells) and mouse spleen lymphocytes • (1) Acquisition of mouse BM-DCs: bone marrow was taken from hind limbs of […] mice, and treated with a red blood cell lysis buffer to remove red blood cells; bone marrow cells (4×10^6 cells) were cultured in a 10 cm culture dish, and 10% FBS, mercaptoethanol (2-ME, 0.8 ng/ml, Sigma) and mouse granulocyte-macrophage colony-stimulating factor (GM-CSF, 20 ng/mL, PeproTech) were added to a DMEM medium and cultured for 7 days; expression levels of CD11c, CD80 and CD86 in cells were detected using antibodies and a flow cytometer. • (2) Mouse macrophages RAW264.7: derived from a cell bank of the Chinese Academy of Sciences and cultured. • (3) Mouse spleen lymphocytes: spleens of C57BL/6 mice were acquired and filtered by a screen into single cells, treated with a red blood cell lysis buffer to remove red blood cells, and centrifuged with lymphocyte isolation solution to isolate the cells for in vitro culture. • 3. Transwell detection of the promotion of the migration of immune cells by metal ions
Liver cancer cells were placed in lower chambers (12 wells) of a Transwell plate, and the above metal ion solutions with different concentrations (0 μM, 500 μM, 1000 μM and 2000 μM) were added to the lower chambers, respectively. After 24 h, the BM-DCs, the RAW264.7 cells and the spleen lymphocytes were placed in upper chambers (2×10^4 cells/well) of the Transwell plate, respectively. The cells were co-cultured for a certain period of time, and nylon membranes of the chambers were taken and stained to observe the migration of the cells.

RAW264.7 cells = assay: CCK-8 assay of toxicity of metal ions; assay type: cell-based, mouse; conditions: 0-200 μg/mL metal ions, 24 h
Experimental: Toxicities of metal ions with different concentrations on RAW264.7 cells were quantified through a CCK-8 assay. Specific steps are as follows: RAW264.7 cells (2×10^4 cells/well, n=4) were inoculated in a 96-well plate, stayed for a whole night and cultured by media containing metal ions with different concentrations (0 μg/mL, 25 μg/mL, 50 μg/mL, 100 μg/mL and 200 μg/mL) for 24 h, respectively, and cell viability was measured through CCK-8.

[2] = test system: MIP-1α secretion in RAW264.7 cells; assay: ELISA of MIP-1α secretion in RAW264.7 cells; assay type: cell-based, mouse; conditions: Cr^3+ 0, 50, 100, 200 μg/mL, 48 h
Experimental: (§1) Cr^3+ with different concentrations (0 μg/mL, 50 μg/mL, 100 μg/mL and 200 μg/mL) was co-incubated with RAW264.7 cells (1×10^6 cells/well) for 48 h. Cell supernatants and protein samples were collected, and various types of […] including MIP-la were detected through ELISA. The expression of various proteins in a PI3K/Akt/mTOR pathway was detected through protein immunoblotting.

PI3K/AKT/mTOR pathway = assay: Protein immunoblotting of the PI3K/Akt/mTOR pathway in RAW264.7 cells; assay type: cell-based, mouse
Experimental: as §1

IR tyrosine kinases = IR tyrosine kinases (Homo sapiens, UniProt P06213); conditions: background statement; cited from earlier work
IR tyrosine kinases, sequence (P06213 28-1382): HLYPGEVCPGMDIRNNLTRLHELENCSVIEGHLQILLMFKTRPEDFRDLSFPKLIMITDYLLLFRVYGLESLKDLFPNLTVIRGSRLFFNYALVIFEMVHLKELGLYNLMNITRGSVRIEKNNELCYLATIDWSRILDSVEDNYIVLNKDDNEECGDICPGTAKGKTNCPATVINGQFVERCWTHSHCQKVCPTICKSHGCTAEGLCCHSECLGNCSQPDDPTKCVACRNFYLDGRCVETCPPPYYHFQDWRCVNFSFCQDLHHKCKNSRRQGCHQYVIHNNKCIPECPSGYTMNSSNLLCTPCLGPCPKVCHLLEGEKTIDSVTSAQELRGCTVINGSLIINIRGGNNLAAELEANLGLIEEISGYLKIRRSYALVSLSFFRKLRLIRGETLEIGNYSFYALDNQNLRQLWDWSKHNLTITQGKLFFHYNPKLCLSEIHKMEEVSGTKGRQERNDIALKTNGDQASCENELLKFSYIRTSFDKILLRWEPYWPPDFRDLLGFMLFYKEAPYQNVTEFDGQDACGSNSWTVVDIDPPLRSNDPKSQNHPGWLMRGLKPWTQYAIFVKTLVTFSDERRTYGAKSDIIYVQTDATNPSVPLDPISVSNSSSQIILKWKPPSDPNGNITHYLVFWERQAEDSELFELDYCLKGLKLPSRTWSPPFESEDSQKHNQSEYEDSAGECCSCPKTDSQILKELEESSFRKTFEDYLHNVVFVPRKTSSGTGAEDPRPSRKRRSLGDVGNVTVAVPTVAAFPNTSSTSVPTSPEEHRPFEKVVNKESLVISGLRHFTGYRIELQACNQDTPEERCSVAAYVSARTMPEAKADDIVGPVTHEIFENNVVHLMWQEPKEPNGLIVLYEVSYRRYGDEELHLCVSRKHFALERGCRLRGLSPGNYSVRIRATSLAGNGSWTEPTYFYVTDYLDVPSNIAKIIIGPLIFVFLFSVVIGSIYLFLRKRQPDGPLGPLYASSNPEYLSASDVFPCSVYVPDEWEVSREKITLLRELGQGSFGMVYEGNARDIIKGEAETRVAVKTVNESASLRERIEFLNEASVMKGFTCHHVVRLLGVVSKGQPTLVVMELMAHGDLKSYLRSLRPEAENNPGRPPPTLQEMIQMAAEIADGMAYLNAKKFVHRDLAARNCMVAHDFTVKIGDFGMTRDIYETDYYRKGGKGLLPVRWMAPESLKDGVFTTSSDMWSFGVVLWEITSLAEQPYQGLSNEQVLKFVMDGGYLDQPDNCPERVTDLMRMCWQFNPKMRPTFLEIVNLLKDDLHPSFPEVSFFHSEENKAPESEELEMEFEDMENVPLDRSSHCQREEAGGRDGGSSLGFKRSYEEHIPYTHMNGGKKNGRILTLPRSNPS

[3] = Stability of metal ions in vitro and in vivo; assay type: physicochemical

Compound | effect on tumor growth of subcutaneous melanoma [1] | migration promoting effect on macrophages (macrophages (RAW264.7); Cr^3+ between 0 μM and 2000 μM) | ability to promote the migration of macrophages (macrophages (RAW264.7)) | toxicity on RAW264.7 cells (cell viability, CCK-8) (RAW264.7 cells) | secretion of MIP-1α [2] | activation of the PI3K/AKT/mTOR pathway (PI3K/AKT/mTOR pathway) | expression of AKT and phosphorylated AKT (pAKT) (PI3K/AKT/mTOR pathway; 48 h) | enhancement of the activity of IR tyrosine kinases (IR tyrosine kinases) | stability in vitro and in vivo [3]
COc1nc(OCc2cccc(-c3ccccc3)c2C)ccc1CNCCNC(C)=O [BMS-202, reference compound] | no significant limiting effect on the tumor growth | – | – | – | – | – | – | – | –
O.O.O.O.O.O.[Cl][Cr]([Cl])[Cl] [Cr^3+, chromium(III) chloride hexahydrate] | no significant limiting effect on the tumor growth | significant migration promoting effect | have an ability to promote the migration of macrophages | good biocompatibility (low biological toxicity) | significantly increased | can activate the PI3K/AKT/mTOR pathway | induces high expression | six times | –
[Cl][Cu][Cl] [Cu^2+, anhydrous copper(II) chloride, reference compound] | – | – | have an ability to promote the migration of macrophages | relatively high cytotoxicity | – | – | – | – | –
[Cl][Fe][Cl] [Fe^2+, iron(II) chloride, reference compound] | – | – | have an ability to promote the migration of macrophages | – | – | – | – | – | poor stability in vitro and in vivo and is easily oxidized to Fe^3+

Source: patent US20260240903A1, “USE OF TRIVALENT CHROMIUM IONS AND/OR METAL CHROMIUM IN PREPARATION OF DRUG FOR IMMUNOTHERAPY OF TUMORS” (SHENZHEN LUOHU PEOPLE'S HOSPITAL, priority 2023, published 2026)
